Test: mn = molality of the nth substance listed, in mol/kg
Conditions: 101 kPa, Liquid; for speed of sound: Sing-around technique in a fixed-path interferometer; for molar conductivity: Alternating current cell with electrodes

O=P([O-])(O)O.[Na+] [sodium dihydrogen phosphate] + O
Conditions	mass density [kg/m3]	molar conductivity [S·m2/mol]	speed of sound [m/s]
283.15 K, m1 = 0.0343	1002.89	–	1451.8
283.15 K, m1 = 0.0484	1004.16	–	1453.5
283.15 K, m1 = 0.1399	1012.4	–	1463.6
283.15 K, m1 = 0.167	1014.82	–	1466.5
283.15 K, m1 = 0.1967	1017.47	–	1469.7
283.15 K, m1 = 0.2231	1019.84	–	1472.6
283.15 K, m1 = 0.2506	1022.23	–	1475.5
283.15 K, m1 = 0.3229	1028.59	–	1483.2
283.15 K, m1 = 0.3586	1031.67	–	1486.9
283.15 K, m1 = 0.4346	1038.07	–	1494.7
283.15 K, m1 = 0.5108	1044.45	–	1502.2
283.15 K, m1 = 0.5812	1050.36	–	1509.2
283.15 K, m1 = 0.6658	1057.33	–	1517.5
283.15 K, m1 = 0.7462	1063.82	–	1525.3
283.15 K, m1 = 0.9163	1077.42	–	1541.5
283.15 K, m1 = 1.093	1091.46	–	1558.4
283.15 K, m1 = 1.262	1104.21	–	1573.7
283.15 K, m1 = 1.451	1117.95	–	1590.5
283.15 K, m1 = 1.758	1139.71	–	1617
283.15 K, m1 = 2.041	1159.21	–	1641.2
283.15 K, m1 = 2.374	1181.48	–	1669.2
283.15 K, m1 = 2.747	1205.29	–	1699.5
283.15 K, m1 = 3.115	1226.77	–	1727.2
283.15 K, m1 = 3.512	1250.32	–	1758.2
288.15 K, m1 = 0.0343	1002.25	–	1470
288.15 K, m1 = 0.0484	1003.5	–	1471.6
288.15 K, m1 = 0.1399	1011.65	–	1481.2
288.15 K, m1 = 0.167	1014.03	–	1484.1
288.15 K, m1 = 0.1967	1016.66	–	1487.2
288.15 K, m1 = 0.2231	1019	–	1490
288.15 K, m1 = 0.2506	1021.37	–	1492.8
288.15 K, m1 = 0.3229	1027.65	–	1500.2
288.15 K, m1 = 0.3586	1030.7	–	1503.7
288.15 K, m1 = 0.4346	1037.04	–	1511.1
288.15 K, m1 = 0.5108	1043.36	–	1518.4
288.15 K, m1 = 0.5812	1049.21	–	1525.2
288.15 K, m1 = 0.6658	1056.12	–	1533.1
288.15 K, m1 = 0.7462	1062.54	–	1540.5
288.15 K, m1 = 0.9163	1076.03	–	1556.1
288.15 K, m1 = 1.093	1089.96	–	1572.3
288.15 K, m1 = 1.262	1102.62	–	1587
288.15 K, m1 = 1.451	1116.26	–	1602.9
288.15 K, m1 = 1.758	1137.89	–	1628.3
288.15 K, m1 = 2.041	1157.28	–	1651.4
288.15 K, m1 = 2.374	1179.42	–	1678.2
288.15 K, m1 = 2.747	1203.12	–	1707.2
288.15 K, m1 = 3.115	1224.51	–	1733.6
288.15 K, m1 = 3.512	1247.97	–	1763.3
293.15 K, m1 = 0.0343	1001.32	–	1486
293.15 K, m1 = 0.0484	1002.56	–	1487.6
293.15 K, m1 = 0.1399	1010.62	–	1496.9
293.15 K, m1 = 0.167	1012.98	–	1499.7
293.15 K, m1 = 0.1967	1015.58	–	1502.7
293.15 K, m1 = 0.2231	1017.9	–	1505.3
293.15 K, m1 = 0.2506	1020.25	–	1508
293.15 K, m1 = 0.3229	1026.47	–	1515.1
293.15 K, m1 = 0.3586	1029.5	–	1518.5
293.15 K, m1 = 0.4346	1035.78	–	1525.6
293.15 K, m1 = 0.5108	1042.04	–	1532.6
293.15 K, m1 = 0.5812	1047.85	–	1539.1
293.15 K, m1 = 0.6658	1054.7	–	1546.8
293.15 K, m1 = 0.7462	1061.08	–	1553.9
293.15 K, m1 = 0.9163	1074.46	–	1568.9
293.15 K, m1 = 1.093	1088.3	–	1584.3
293.15 K, m1 = 1.262	1100.87	–	1598.5
293.15 K, m1 = 1.451	1114.43	–	1613.8
293.15 K, m1 = 1.758	1135.93	–	1638.1
293.15 K, m1 = 2.041	1155.22	–	1660.2
293.15 K, m1 = 2.374	1177.26	–	1685.9
293.15 K, m1 = 2.747	1200.86	–	1713.7
293.15 K, m1 = 3.115	1222.16	–	1739
293.15 K, m1 = 3.512	1245.55	–	1767.4
298.15 K, m1 = 0.0207	–	0.00762	–
298.15 K, m1 = 0.0343	1000.13	–	1500.2
298.15 K, m1 = 0.0415	–	0.00723	–
298.15 K, m1 = 0.0484	1001.36	–	1501.7
298.15 K, m1 = 0.0697	–	0.00683	–
298.15 K, m1 = 0.1051	–	0.00655	–
298.15 K, m1 = 0.1397	–	0.00634	–
298.15 K, m1 = 0.1399	1009.35	–	1510.6
298.15 K, m1 = 0.167	1011.69	–	1513.2
298.15 K, m1 = 0.1901	–	0.0061	–
298.15 K, m1 = 0.1967	1014.27	–	1516.2
298.15 K, m1 = 0.2231	1016.57	–	1518.7
298.15 K, m1 = 0.2357	–	0.0059	–
298.15 K, m1 = 0.2506	1018.89	–	1521.3
298.15 K, m1 = 0.2947	–	0.00572	–
298.15 K, m1 = 0.3229	1025.07	–	1528.2
298.15 K, m1 = 0.3516	–	0.00553	–
298.15 K, m1 = 0.3586	1028.07	–	1531.5
298.15 K, m1 = 0.433	–	0.00533	–
298.15 K, m1 = 0.4346	1034.3	–	1538.3
298.15 K, m1 = 0.5108	1040.52	–	1545
298.15 K, m1 = 0.5113	–	0.00517	–
298.15 K, m1 = 0.5812	1046.29	–	1551.3
298.15 K, m1 = 0.5842	–	0.00496	–
298.15 K, m1 = 0.653	–	0.00484	–
298.15 K, m1 = 0.6658	1053.09	–	1558.7
298.15 K, m1 = 0.6999	–	0.00475	–
298.15 K, m1 = 0.7462	1059.42	–	1565.5
298.15 K, m1 = 0.7919	–	0.00457	–
298.15 K, m1 = 0.9163	1072.73	–	1579.9
298.15 K, m1 = 0.9206	–	0.00436	–
298.15 K, m1 = 1.093	1086.48	–	1594.8
298.15 K, m1 = 1.175	–	0.00398	–
298.15 K, m1 = 1.18	–	0.00398	–
298.15 K, m1 = 1.262	1098.98	–	1608.4
298.15 K, m1 = 1.447	–	0.00367	–
298.15 K, m1 = 1.451	1112.46	–	1623.1
298.15 K, m1 = 1.758	1133.86	–	1646.4
298.15 K, m1 = 1.794	–	0.00329	–
298.15 K, m1 = 2.041	1153.06	–	1667.7
298.15 K, m1 = 2.079	–	0.00303	–
298.15 K, m1 = 2.374	1175	–	1692.3
298.15 K, m1 = 2.396	–	0.00276	–
298.15 K, m1 = 2.398	–	0.00278	–
298.15 K, m1 = 2.747	1198.51	–	1718.9
298.15 K, m1 = 3.115	1219.74	–	1743.2
298.15 K, m1 = 3.512	1243.05	–	1770.5
303.15 K, m1 = 0.0343	998.703	–	1512.4
303.15 K, m1 = 0.0484	999.924	–	1513.9
303.15 K, m1 = 0.1399	1007.86	–	1522.5
303.15 K, m1 = 0.167	1010.18	–	1525.1
303.15 K, m1 = 0.1967	1012.74	–	1527.9
303.15 K, m1 = 0.2231	1015.02	–	1530.4
303.15 K, m1 = 0.2506	1017.33	–	1532.9
303.15 K, m1 = 0.3229	1023.47	–	1539.5
303.15 K, m1 = 0.3586	1026.45	–	1542.6
303.15 K, m1 = 0.4346	1032.64	–	1549.3
303.15 K, m1 = 0.5108	1038.82	–	1555.8
303.15 K, m1 = 0.5812	1044.55	–	1561.8
303.15 K, m1 = 0.6658	1051.31	–	1568.9
303.15 K, m1 = 0.7462	1057.61	–	1575.5
303.15 K, m1 = 0.9163	1070.83	–	1589.4
303.15 K, m1 = 1.093	1084.51	–	1603.7
303.15 K, m1 = 1.262	1096.94	–	1616.8
303.15 K, m1 = 1.451	1110.36	–	1631
303.15 K, m1 = 1.758	1131.66	–	1653.4
303.15 K, m1 = 2.041	1150.78	–	1673.9
303.15 K, m1 = 2.374	1172.65	–	1697.5
303.15 K, m1 = 2.747	1196.07	–	1723.2
303.15 K, m1 = 3.115	1217.23	–	1746.5
303.15 K, m1 = 3.512	1240.48	–	1772.8

Reference: the NIST ThermoML archive (doi:10.1016/j.jct.2008.01.018)
